Read-outs that look alike come from different tables or passages of the source.
What was measured:
[1] = system: GPR88 KO and WT mice; experiment: Phencyclidine-stimulated locomotor hyperactivity; format: in vivo
[2] = system: GPR88 KO and WT mice; experiment: Amphetamine-stimulated locomotor hyperactivity; format: in vivo; conditions: 3 mg/kg i.p.
Procedure: The amphetamine-stimulated locomotor hyperactivity assay is another type of assay to model the neuropathological states in schizophrenia, similar to the hyperdopaminergia in the ventral striatum. To measure spontaneous activity and amphetamine-stimulated locomotor hyperactivity, the mice were individually placed in Opto-Veramax-3 monitor cages (Columbus Instruments, Columbus, Ohio) and allowed to habituate for 30 minutes with room light and white noise on. After habituation, each mouse was injected with amphetamine (AMPH, 3 mg/kg) in the intraperitoneum. During the first 30 minutes, the spontaneous activity was recorded every 10 minutes. After amphetamine administration, amphetamine-stimulated locomotor hyperactivity was measured every 10 minutes over a 60 minutes time span by the activity monitor. Accuscan Versamax and Versadat software (Columbus Instruments, Columbus, Ohio) were used to convert the infrared beam breaks into horizontal activity counts. […] Males and females were analyzed separately.

[3] = system: GPR88 KO and WT mice; experiment: In vivo striatal microdialysis, extracellular dopamine after amphetamine; conditions: 3 mg/kg i.p.; both genotypes, males and females
Procedure: Chromatographic separations were performed using a Capcell PAK™, Strong Cation Exchange columns (5 μm UG80, 1.5×150 mm; Shiseido, Phenomenex, USA). The mobile phase comprised (mM) 13 Na2HPO4, 87 NaH2PO4, 0.1 EDTA and 20% methanol, was adjusted to pH 6 and delivered at 0.2 ml/minutes at 40° C.

[4] = biological target: T1, striatal dopamine D2 receptors (Mus musculus, UniProt P61168); experiment: [3H]spiperone binding to striatal membrane preparations; set-up: species or system mice
T1 construct: from tissue; host or cells: mouse striatum (WT and GPR88 knockout mice), membrane preparation
T1 sequence (P61168 whole entry): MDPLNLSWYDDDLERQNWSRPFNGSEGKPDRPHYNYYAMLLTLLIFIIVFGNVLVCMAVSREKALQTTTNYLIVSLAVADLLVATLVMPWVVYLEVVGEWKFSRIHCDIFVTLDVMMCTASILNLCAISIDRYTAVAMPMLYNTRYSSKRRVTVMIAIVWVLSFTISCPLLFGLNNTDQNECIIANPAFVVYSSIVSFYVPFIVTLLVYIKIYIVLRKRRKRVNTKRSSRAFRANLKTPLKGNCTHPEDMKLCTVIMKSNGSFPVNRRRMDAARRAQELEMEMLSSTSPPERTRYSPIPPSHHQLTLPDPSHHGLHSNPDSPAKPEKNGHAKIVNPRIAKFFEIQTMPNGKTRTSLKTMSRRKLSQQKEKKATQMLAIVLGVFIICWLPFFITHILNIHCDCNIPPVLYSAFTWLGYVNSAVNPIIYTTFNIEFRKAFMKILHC
Procedure: Striata from 10 mice (male and female, WT & GPR88 KO) were pooled and homogenized in a motor-driven POLYTRON™ homogenizer (Kinematica AG, Newark, N.J.) at setting six for 10 seconds in 3 mL per 100 mg of wet tissue in 50 mM Tris-HCl buffer, pH 7.4, containing 120 mM NaCl, 5 mM KCl, 1.5 mM CaCl2, 4 mM MgCl2, and 1 mM EDTA. […] The binding of each concentration of radioligand was determined in duplicate. Incubations were carried out at room temperature for 120 minutes. The final concentration of the membrane protein in each binding assay was approximately 70 μg/ml. Butaclamol (+), (10 μM), (Sigma-Aldrich, St. Louis, Mo.) was used to define the nonspecific binding. The incubations were terminated by rapid filtration using a Wallac Tomtec harvester (Waltham, Mass.) and buffer-presoaked glass fiber filter mats (GF/B, Whatman Inc. Florham Park, N.J.). […] The radioactivity of the filters was then counted in a Wallac 1205 scintillation counter (Perkin Elmer Life and Analytical Sciences).
The estimates of Bmax (the number of available binding receptors) and Kd (the dissociation constant) were calculated by fitting the specific binding data with nonlinear regression using GraphPad PRISM™ data analysis software (GraphPad Software, San Diego, Calif.).

[5] = system: GPR88 KO and WT mice; experiment: Apomorphine-induced climbing and stereotypy; format: in vivo
Procedure: (§1) The GPR88 KO and WT mice were acclimated to a wire cage (cylindrical ½″×½″ mesh with the dimensions of 4½″ d×5½″ h) for at least 2 hours before testing to allow proper habituation. […] (+ present, − absent). Readings were repeated every 5 minutes during a 30-minute test session.
The behavioral assessment was conducted over three conditions in succession: (1) an evaluation of the response to a subcutaneous vehicle (0.25% TWEEN® 80) injection to establish a baseline; (2) followed by an evaluation of the response to a dose of 0.3 mg/kg subcutaneous apomorphine injection; (3) followed by an evaluation of the response to 1 mg/kg subcutaneous apomorphine injection. Behavioral observation began 5 minutes after each injection. Vehicle was given at T0 minutes with observational assessment from T5-T35 minutes and habituation followed from T35-T65 minutes.
At T65, the 0.3 mg/kg dose of apomorphine was administered. Behavioral observation for the 0.3 mg/kg dose of apomorphine was from T70-T100, followed by another habituation from T100-T130 minutes.
At T130 min, the 1.0 mg/kg dose of apomorphine was administered and then the mice were scored from T135-T165 min. For each subject, the climbing scores were totaled for each observational period (maximum=12 per animal). Stereotypy scores were also summed up (maximum=6 per animal). […] Males and females were analyzed separately.

[6] = system: GPR88 KO and WT mice; experiment: Antipsychotic block of apomorphine-induced climbing and stereotypy; format: in vivo; conditions: for minimal effective dose (MED), block of apomorphine-induced climbing / minimal effective dose (MED), block of apomorphine-induced stereotypy: i.p. 30 minutes before apomorphine 0.54 mg/kg
Procedure: as §1
Observation and scoring for climbing and stereotypy were performed as described in Example 6. […] Males and females were analyzed separately. […] For graphical representation, the data was normalized to the amount of climbing and stereotypy shown by the vehicle treated control group.

[7] = system: GPR88 KO and WT mice; experiment: Haloperidol-induced catalepsy; conditions: 1 mg/kg i.p.; for percentage of maximum catalepsy over time: 30, 60, 90, 120 minutes
Procedure: Thirty, 60, 90, and 120 minutes following drug administration, the animal's forelimbs were draped over a thin horizontal rod 1¼″ high. The amount of time in seconds for which the animal maintained this awkward posture was recorded (60 seconds was maximum). Maintenance of this position was considered catalepsy. Animals that appeared to be sedated or had loss of muscle tone were checked for a righting reflex. Those mice that could not right themselves when placed on their backs were eliminated from the study. Mean time spent in the catalepsy position for the dose at each time was expressed as a percentage of maximum possible catalepsy. During the study's four time periods, the number of seconds with maintenance of the catalepsy position was recorded for each animal. Data was subjected to repeated-measures ANOVA followed by post-hoc analysis of least squares means. Males and females were analyzed separately.

[8] = system: GPR88 KO and WT mice; conditions: for percentage prepulse inhibition (PPI), treatment effect: 0.54 mg/kg i.p. 30 minutes before testing, vs vehicle
Procedure: To detect potential phenotypic deficits in the GPR88 knockout mice, they were first evaluated for startle habituation. In brief, mice were tested using the SR-LAB (San Diego Instruments, San Diego, Calif.) system. Each system consists of a ventilated sound attenuated chamber containing a stabilimeter consisting of a Plexiglas cylinder (12.5 cm length, 3.5 cm diameter) mounted on a Plexiglas frame. Acoustic stimuli were delivered through a speaker mounted in the enclosure ceiling, that was 27 cm above the cylinder. Startle responses were transduced by a piezoelectric accelerometer mounted beneath the frame. Output signals were digitized and rectified as consecutive 1-millisecond (msec) readings (a total of 65 were recorded, and startle response was expressed as an averaged response across these samples) on a computer using the San Diego Instrument software. Mice were placed individually in the chamber for a 5-minute acclimation period at a background noise level of 64 dB.
Prepulse inhibition was measured immediately following the startle sensitivity test. Five different trial tests were used in studying prepulse inhibition and were performed in a pseudorandom order. These trial tests included (1) a no stimulus trial (64 dB background noise to determine basal activity), a pulse alone trial (118 dB, 40 ms duration), and three 20 ms prepulses at either 69, 76, or 84 dB intensities paired (100 ms, onset to onset) with the 118 dB pulse. […] Percentage prepulse inhibition was calculated as 100 minus the ratio of the average startle response observed at each prepulse+pulse trial relative to the pulse alone stimulus, times 100. The percentage prepulse at across dB levels was analyzed by repeated-measures ANOVA. […] Males and females were analyzed separately. […]
The PPI was averaged across the 3 dB levels and analyzed by a two-way ANOVA with genotype and treatment as the factors followed by a post hoc analysis of least square means. Males and females were again analyzed separately.

[9] = female GPR88 KO and WT mice, 1 mg/kg s.c.
[10] = GPR88 KO and WT female mice, 0.3 mg/kg
[11] = male WT mice, 0.54 and 1.0 mg/kg

c1ccc(C2(N3CCCCC3)CCCCC2)cc1 [PCP, phencyclidine]
locomotor activity after administration ([1]; female WT and GPR88 KO mice, 1.0 mg/kg): Neither of the genotypes responded
locomotor activity after administration ([1]; female WT and GPR88 KO mice, 1.7 mg/kg or 3.0 mg/kg): increased locomotor activity
locomotor activation (total distance traveled), KO compared with WT ([1]; female mice): increased sensitivity for locomotor activation
locomotor activity after administration ([1]; male WT and GPR88 KO mice, 3 mg/kg i.p.): increased locomotor activity
locomotor activity after administration ([1]; male WT and GPR88 KO mice, lower doses (1.0, 1.7 mg/kg)): Neither of the genotypes responded
locomotor activation (total distance traveled), KO compared with WT ([1]; male mice): increased sensitivity for locomotor activation

CC(N)Cc1ccccc1 (centres unmarked) [amphetamine]
locomotor activity after administration ([2]; female mice, 40-90 min): significant increase in activity
locomotor activity, KO compared with WT ([2]; female mice, 40-90 min): more hyperactivity overall
locomotor activity after administration ([2]; male mice (GPR88 KO), 40-90 min): significant increase in activity
locomotor activity, KO compared with WT ([2]; male mice): greater increase in activity up to the 50 minute time point
striatal extracellular dopamine after administration [3]: significant and equal increase in dopamine

O=C(CCCN1CCC2(CC1)C(=O)NCN2c1ccccc1)c1ccc(F)cc1 [[^3H]spiperone]
Bmax (the number of available binding receptors) ([4]; striatal membranes of GPR88 KO mice): 1.83 pmol/mg
Bmax (the number of available binding receptors) ([4]; striatal membranes of WT mice): 1.34 pmoles/mg protein

CN1CCc2cccc3c2[C@H]1Cc1ccc(O)c(O)c1-3 [apomorphine]
average increase in climbing scores of GPR88 KO mice over the wild type mice ([5]; apomorphine-induced): 227%
average increase in stereotypy scores of GPR88 KO mice over the wild type mice ([5]; apomorphine-induced): 129%
climbing, dose effect [5, 9]: the most climbing
stereotypy, dose effect [5, 9]: the most stereotypy
climbing scores, KO compared with WT ([5]; female mice, 0.3 mg/kg s.c.): higher climbing scores
stereotypy, KO compared with WT ([5]; female mice, 0.3 mg/kg s.c.): more stereotypy
climbing, KO compared with WT ([5]; female mice, 1 mg/kg s.c.): equivalent
stereotypy scores, dose effect ([5]; male GPR88 KO and WT mice, 1 mg/kg s.c.): maximal stereotypy
climbing scores, dose effect ([5]; male GPR88 KO and WT mice, vehicle, 0.3 and 1 mg/kg s.c.): climbing increasing with the dose of apomorphine
climbing scores, KO compared with WT ([5]; male mice, 0.3 mg/kg s.c.): higher climbing scores
stereotypy, KO compared with WT ([5]; male mice, 0.3 mg/kg s.c.): more stereotypy
climbing, KO compared with WT ([5]; male mice, 1 mg/kg s.c.): equivalent
stereotypy, KO compared with WT ([5]; male mice, 1 mg/kg s.c.): equivalent

O=C(CCCN1CCC(O)(c2ccc(Cl)cc2)CC1)c1ccc(F)cc1 [haloperidol]
block of apomorphine-induced climbing [6, 10]: full block of climbing
block of apomorphine-induced stereotypy [6, 10]: full block of stereotypy
dose required to produce a full block of climbing ([6]; male GPR88 KO mice): 1.0 mg/kg
minimal effective dose, apomorphine-induced climbing and stereotypy (summary) ([6]; male GPR88 KO mice): 0.54 mg/kg
block of apomorphine-induced stereotypy ([6]; male GPR88 KO mice, 1.0 mg/kg): 50%
minimal effective dose (MED), block of apomorphine-induced climbing ([6]; male GPR88 KO mice): 0.54 mg/kg
minimal effective dose (MED), block of apomorphine-induced stereotypy ([6]; male GPR88 KO mice): 0.54 mg/kg
minimal effective dose, apomorphine-induced climbing and stereotypy (summary) ([6]; male WT mice): < 0.3 mg/kg
block of apomorphine-induced climbing [6, 11]: full block of climbing
block of apomorphine-induced stereotypy [6, 11]: full block of stereotypy
minimal effective dose (MED), block of apomorphine-induced climbing ([6]; male WT mice): less than or equal to 0.3 mg/kg
minimal effective dose (MED), block of apomorphine-induced stereotypy ([6]; male WT mice): less than or equal to 0.3 mg/kg
percentage of maximum catalepsy over time ([7]; GPR88 KO and WT male mice): percentage of maximum catalepsy increasing to the 120 minute test point
percentage of maximum catalepsy over time ([7]; female mice): percentage of maximum catalepsy increasing to the 120 minute test point
level of catalepsy, GPR88 KO compared with WT ([7]; male and female mice): equivalent levels of catalepsy

Cc1nc2n(c(=O)c1CCN1CCC(c3noc4cc(F)ccc34)CC1)CCCC2 [risperidone]
deficit in PPI of GPR88 KO mice upon treatment ([8]; GPR88 KO mice, summary statement): normalized
percentage prepulse inhibition (PPI), treatment effect ([8]; male GPR88 KO mice): significant treatment effect
percentage prepulse inhibition (PPI), treatment effect ([8]; male WT mice): significant treatment effect
